Laboratory results as given in US20250011331A1 (Nimbus Saturn, Inc., priority 2021, published 2025).

Target: T1, HPK1 (Homo sapiens, UniProt Q92918)
T1 construct: purchased Invitrogen
Test: HPK1 biochemical enzyme assay (microfluidic mobility shift)
Settings: 1.5 nM HPK1 (Invitrogen), 1 mM ATP, 30 min preincubation, 60 min at RT, Caliper EZ Reader
Procedure: HPK1 biochemical enzyme assay: HPK1 enzyme inhibition was measured using a microfluidic mobility shift assay. Reactions were performed in a 384-well plate, containing 1.5 nM HPK1 (Invitrogen), in assay buffer (Cama Biosciences; pH 7.4). Test compounds were titrated in ten point curves (top final assay concentration 3 μM), and preincubated with enzyme/substrate mix for 30 min prior to initiation of the reaction by addition of ATP (1 mM final concentration) and substrate (1 μM final concentration; Carna Biosciences) diluted in assay buffer supplemented by MgCl2 (final assay concentration of 5 mM). Following 60 min incubation at RT, the reaction was terminated by addition of 60 μl/well termination buffer (Carna Biosciences) and signal determination using a Caliper EZ Reader (Perkin Elmer, UK).

T1 sequence (Q92918 whole entry): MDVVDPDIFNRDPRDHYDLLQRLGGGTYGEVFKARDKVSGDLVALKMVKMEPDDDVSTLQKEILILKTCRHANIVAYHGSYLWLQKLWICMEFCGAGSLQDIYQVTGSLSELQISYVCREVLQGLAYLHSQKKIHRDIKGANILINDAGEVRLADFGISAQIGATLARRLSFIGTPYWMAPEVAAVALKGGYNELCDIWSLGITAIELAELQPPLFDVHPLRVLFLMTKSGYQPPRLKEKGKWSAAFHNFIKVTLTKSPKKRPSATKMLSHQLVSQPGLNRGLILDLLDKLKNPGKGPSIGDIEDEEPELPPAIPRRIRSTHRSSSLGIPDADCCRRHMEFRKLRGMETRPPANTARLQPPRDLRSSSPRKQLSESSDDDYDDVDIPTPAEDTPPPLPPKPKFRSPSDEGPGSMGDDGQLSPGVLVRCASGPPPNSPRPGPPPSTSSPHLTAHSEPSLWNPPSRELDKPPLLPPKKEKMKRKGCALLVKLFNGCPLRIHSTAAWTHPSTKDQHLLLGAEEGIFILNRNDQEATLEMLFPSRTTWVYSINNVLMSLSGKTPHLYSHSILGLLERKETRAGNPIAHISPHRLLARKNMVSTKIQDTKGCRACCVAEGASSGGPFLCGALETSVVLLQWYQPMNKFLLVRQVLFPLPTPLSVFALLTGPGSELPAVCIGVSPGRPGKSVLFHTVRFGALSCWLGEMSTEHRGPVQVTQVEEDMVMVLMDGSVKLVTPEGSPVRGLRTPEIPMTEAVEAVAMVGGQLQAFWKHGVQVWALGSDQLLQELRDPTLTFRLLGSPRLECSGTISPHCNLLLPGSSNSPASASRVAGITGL

In the case of `C[C@H](OC1CCOCC1)c1ccc(Nc2ccc(-c3cnc4cc(F)ccn34)c3c2C(=O)NC3)nc1CN(C)C` (single isomer, unassigned) [Compound I-26], the IC50 is reported as ≤ 100 nM.
With `CN(C)Cc1nc(Nc2ccc(-c3cnc4cc(F)ccn34)c3c2C(=O)NC3)ccc1[C@@]1(C)CCCO1` (single isomer, unassigned) [Compound I-5] the IC50 was ≤ 100 nM.
`COC1CN(Cc2nc(Nc3ccc(-c4cnc5cnccn45)c4c3C(=O)NC4)ccc2C2CCOC2)C1` (stereo not shown) [Compound I-41, 4-imidazo[1,2-a]pyrazin-3-yl-7-[[6-[(3-methoxyazetidin-1-yl)methyl]-5-tetrahydrofuran-3-yl-2-pyridyl]amino]isoindolin-1-one] was tested, and the IC50 was > 1000 nM.
In the case of `CN(C)Cc1nc(Nc2ccc(-c3cnc4cc(F)ccn34)c3c2C(=O)NC3)ccc1C1CCCC1` [Compound I-22], the IC50 is reported as ≤ 100 nM.
For `CO[C@H]1CCN(Cc2nc(Nc3ccc(-c4cnc5cc(F)ccn45)c4c3C(=O)NC4)ccc2C2CCN(C)C(=O)C2)C1` (stereo partly drawn) [Compound I-44, 4-(7-fluoroimidazo[1,2-a]pyridin-3-yl)-7-[[6-[[(3S)-3-methoxypyrrolidin-1-yl]methyl]-5-(1-methyl-2-oxo-4-piperidyl)-2-pyridyl]amino]isoindolin-1-one], the IC50 was ≤ 100 nM.
With `CN(C)Cc1nc(Nc2ccc(-c3cnc4cc(C#N)ccn34)c3c2C(=O)NC3)ccc1C1CCOC1` (stereo not shown) [Compound I-47, 3-[7-[[6-[(dimethylamino)methyl]-5-tetrahydrofuran-3-yl-2-pyridyl]amino]-1-oxo-isoindolin-4-yl]imidazo[1,2-a]pyridine-7-carbonitrile] the IC50 was ≤ 100 nM.
`CN(C)Cc1nc(Nc2ccc(-c3cnc4cc(F)ccn34)c3c2C(=O)NC3)ccc1[C@@H]1COCCO1` (single isomer, unassigned) [Compound I-15] was tested, and the IC50 was ≤ 100 nM.
In the case of `CN(C)Cc1cc(C2CCOC2)cc(Nc2ccc(-c3cnc4cc(F)ccn34)c3c2C(=O)NC3)n1` (stereo not shown) [Compound I-46], the IC50 is reported as > 1000 nM.
With `CN(C)Cc1cc(C2CCOCC2)cc(Nc2ccc(-c3cnc4cc(F)ccn34)c3c2C(=O)NC3)n1` [Compound I-39, 7-((6-((dimethylamino)methyl)-4-(tetrahydro-2H-pyran-4-yl)pyridin-2-yl)amino)-4-(7-fluoroimidazo[1,2-a]pyridin-3-yl)isoindolin-1-one] the IC50 was ≤ 100 nM.
With `CN(C)Cc1nc(Nc2ccc(-c3cnc4cc(C#N)ccn34)c3c2C(=O)NC3)ccc1C1CCOC1` (single isomer, unassigned) [Compound I-38, 3-(7-((6-((dimethylamino)methyl)-5-(tetrahydrofuran-3-yl)pyridin-2-yl)amino)-1-oxoisoindolin-4-yl)imidazo[1,2-a]pyridine-7-carbonitrile] the IC50 was ≤ 100 nM.
`C[C@@H](O)c1ccc(Nc2ccc(-c3cnc4cc(F)ccn34)c3c2C(=O)NC3)nc1CN(C)C` [Compound I-9, (R)-7-((6-((dimethylamino)methyl)-5-(1-hydroxyethyl)pyridin-2-yl)amino)-4-(7-fluoroimidazo[1,2-a]pyridin-3-yl)isoindolin-1-one] was tested, and the IC50 was ≤ 100 nM.
In the case of `Cc1cncc2ncc(-c3ccc(Nc4ccc([C@@H]5CCOC5)c(CN(C)C)n4)c4c3CNC4=O)n12` (single isomer, unassigned) [Compound I-27], the IC50 is reported as ≤ 100 nM.
In the case of `CN(C)Cc1nc(Nc2ccc(-c3cnc4cc(F)ccn34)c3c2C(=O)NC3)ccc1[C@]1(C)CCCO1` (single isomer, unassigned) [Compound I-6], the IC50 is reported as ≤ 100 nM.
`CN1CCCC1c1nc(Nc2ccc(-c3cnc4cc(F)ccn34)c3c2C(=O)NC3)ccc1C1CCOC1` (stereo not shown) [Compound I-16] showed an IC50 of 100 to 1000 nM.
With `C[C@H](OC[C@H]1COCCO1)c1ccc(Nc2ccc(-c3cnc4cc(F)ccn34)c3c2C(=O)NC3)nc1CN(C)C` (single isomer, unassigned) [Compound I-33] the IC50 was ≤ 100 nM.
With `CN(C)Cc1nc(Nc2ccc(-c3cnc4cc(F)ccn34)c3c2C(=O)NC3)ccc1OC1CC2(COC2)C1` [Compound I-40, 7-((5-((2-oxaspiro[3.3]heptan-6-yl)oxy)-6-((dimethylamino)methyl)pyridin-2-yl)amino)-4-(7-fluoroimidazo[1,2-a]pyridin-3-yl)isoindolin-1-one] the IC50 was ≤ 100 nM.
In the case of `C[C@H](c1nc(Nc2ccc(-c3cnc4cc(F)ccn34)c3c2C(=O)NC3)ccc1C1CCOCC1)N(C)C` [Compound I-7, (R)-7-((6-(1-(dimethylamino)ethyl)-5-(tetrahydro-2H-pyran-4-yl)pyridin-2-yl)amino)-4-(7-fluoroimidazo[1,2-a]pyridin-3-yl)isoindolin-1-one], the IC50 is reported as 100 to 1000 nM.
With `CN1CC[C@H](c2ccc(Nc3ccc(-c4cnc5cc(F)ccn45)c4c3C(=O)NC4)nc2)C1=O` [Compound I-53, (R)-4-(7-fluoroimidazo[1,2-a]pyridin-3-yl)-7-((5-(1-methyl-2-oxopyrrolidin-3-yl)pyridin-2-yl)amino)isoindolin-1-one] the IC50 was ≤ 100 nM.
Molecule `CN1CCN(C(=O)[C@@H]2CCOC2)c2ccc(Nc3ccc(-c4cnc5cc(F)ccn45)c4c3C(=O)NC4)nc2C1` (single isomer, unassigned) [Compound I-17] has an IC50 of 100 to 1000 nM.
For `CN(C)Cc1cc(C2CCOC2)cc(Nc2ccc(-c3cnc4cc(F)ccn34)c3c2C(=O)NC3)n1` (single isomer, unassigned) [Compound I-45], the IC50 was ≤ 100 nM.
In the case of `C[C@@H](c1ccc(Nc2ccc(-c3cnc4cnccn34)c3c2C(=O)NC3)nc1CN(C)C)C1CCOCC1` [Compound I-36], the IC50 is reported as ≤ 100 nM.
`CN(C)Cc1nc(Nc2ccc(-c3cnc4cc(F)ccn34)c3c2C(=O)NC3)ccc1[C@H]1COCCO1` (single isomer, unassigned) [Compound I-14] was tested, and the IC50 was ≤ 100 nM.
With `CN(C)Cc1nc(Nc2ccc(-c3cnc4cc(F)ccn34)c3c2C(=O)NC3)ccc1[C@@H]1CC[C@H](O)C1` [Compound I-2, 7-((6-((dimethylamino)methyl)-5-((1R,3S)-3-hydroxycyclopentyl)pyridin-2-yl)amino)-4-(7-fluoroimidazo[1,2-a]pyridin-3-yl)isoindolin-1-one] the IC50 was ≤ 100 nM.
`CN(C)Cc1nc(Nc2ccc(-c3cnc4cc(F)ccn34)c3c2C(=O)NC3)ccc1C(C)(C)N1CCOCC1=O` [Compound I-25] was tested, and the IC50 was ≤ 100 nM.
For `Cc1cncc2ncc(-c3ccc(Nc4ccc([C@H]5CCOC5)c(CN(C)C)n4)c4c3CNC4=O)n12` (single isomer, unassigned) [Compound I-28], the IC50 was ≤ 100 nM.
In the case of `CN(C)CCc1nc(Nc2cnc(-c3ccnc4c3ccn4C)c3c2C(=O)NC3)ccc1C1CCOCC1` [Compound I-13, 7-((6-(2-(dimethylamino)ethyl)-5-(tetrahydro-2H-pyran-4-yl)pyridin-2-yl)amino)-4-(1-methyl-1H-pyrrolo[2,3-b]pyridin-4-yl)-2,3-dihydro-1H-pyrrolo[3,4-c]pyridin-1-one], the IC50 is reported as ≤ 100 nM.
For `CC(Oc1ccc(Nc2ccc(-c3cnc4cnccn34)c3c2C(=O)NC3)nc1CN(C)C)C1CC(F)(F)C1` (stereo not shown) [Compound I-49, 7-[[5-[1-(3,3-difluorocyclobutyl)ethoxy]-6-[(dimethylamino)methyl]-2-pyridyl]amino]-4-imidazo[1,2-a]pyrazin-3-yl-isoindolin-1-one], the IC50 was ≤ 100 nM.
With `CN1CCN(C(=O)[C@H]2CCOC2)c2ccc(Nc3ccc(-c4cnc5cc(F)ccn45)c4c3C(=O)NC4)nc2C1` (single isomer, unassigned) [Compound I-18] the IC50 was 100 to 1000 nM.
`CN(C)Cc1nc(Nc2ccc(-c3cnc4cc(F)ccn34)c3c2C(=O)NC3)ccc1N1CCOC(C)(C)C1=O` [Compound I-23] was tested, and the IC50 was ≤ 100 nM.
In the case of `C[C@H](O)c1ccc(Nc2ccc(-c3cnc4cc(F)ccn34)c3c2C(=O)NC3)nc1CN(C)C` [Compound I-10, (S)-7-((6-((dimethylamino)methyl)-5-(1-hydroxyethyl)pyridin-2-yl)amino)-4-(7-fluoroimidazo[1,2-a]pyridin-3-yl)isoindolin-1-one], the IC50 is reported as ≤ 100 nM.
With `CN(C)Cc1nc(Nc2ccc(-c3cnc4cnccn34)c3c2C(=O)NC3)ccc1OCC1CCC(F)(F)CC1` [Compound I-11] the IC50 was ≤ 100 nM.
For `CO[C@@]1(c2ccc(Nc3ccc(-c4cnc5cc(F)ccn45)c4c3C(=O)NC4)nc2CN(C)C)CCOC1` (single isomer, unassigned) [Compound I-20], the IC50 was ≤ 100 nM.
For `C[C@H](OC1CCC1)c1ccc(Nc2ccc(-c3cnc4cnccn34)c3c2C(=O)NC3)nc1CN(C)C` [Compound I-30], the IC50 was ≤ 100 nM.
With `CN(C)Cc1nc(Nc2ccc(-c3cnc4cc(F)ccn34)c3c2C(=O)NC3)ccc1[C@H]1CC[C@@H](O)C1` [Compound I-1, 7-((6-((dimethylamino)methyl)-5-((1S,3R)-3-hydroxycyclopentyl)pyridin-2-yl)amino)-4-(7-fluoroimidazo[1,2-a]pyridin-3-yl)isoindolin-1-one] the IC50 was ≤ 100 nM.
`CO[C@H]1CCN(Cc2nc(Nc3ccc(-c4cnc5cc(F)ccn45)c4c3C(=O)NC4)ccc2C2CCN(C)C(=O)C2)C1` (stereo partly drawn) [Compound I-43, 4-(7-fluoroimidazo[1,2-a]pyridin-3-yl)-7-[[6-[[(3S)-3-methoxypyrrolidin-1-yl]methyl]-5-(1-methyl-2-oxo-4-piperidyl)-2-pyridyl]amino]isoindolin-1-one] was tested, and the IC50 was ≤ 100 nM.
For `COC1CN(Cc2nc(Nc3ccc(-c4cnc5cnccn45)c4c3C(=O)NC4)ccc2C2CCOC2)C1` (stereo not shown) [Compound I-42, 4-imidazo[1,2-a]pyrazin-3-yl-7-[[6-[(3-methoxyazetidin-1-yl)methyl]-5-tetrahydrofuran-3-yl-2-pyridyl]amino]isoindolin-1-one], the IC50 was ≤ 100 nM.
`C[C@@H](OC1CCOCC1)c1ccc(Nc2ccc(-c3cnc4cc(F)ccn34)c3c2C(=O)NC3)nc1CN(C)C` (single isomer, unassigned) [Compound I-24] was tested, and the IC50 was ≤ 100 nM.
